Test results as given in PubChem BioAssay AID1259407 (Chemical Carcinogenesis Research Information System (CCRIS), 2018).
The source made the active and inactive calls. How the calls were made is not given here.

Tested on: CCRIS mutagenicity, Ames/micronucleus/aberration tests
Assay: CCRIS mutagenicity studies

Nc1ccc(N)c2c1C(=O)c1cccc([N+](=O)[O-])c1C2=O
mutagenic call (Test System: AMES SALMONELLA TYPHIMURIUM, Strain/Indicator: TA98, Metabolic Activation: NONE, Method: STANDARD PLATE): active; positive
mutagenic call (Test System: AMES SALMONELLA TYPHIMURIUM, Strain/Indicator: TA98, Metabolic Activation: RAT, LIVER, S-9, AROCLOR 1254, Method: STANDARD PLATE): active; positive
mutagenic call (Test System: AMES SALMONELLA TYPHIMURIUM, Strain/Indicator: TA100, Metabolic Activation: NONE, Method: STANDARD PLATE): inactive; negative
mutagenic call (Test System: AMES SALMONELLA TYPHIMURIUM, Strain/Indicator: TA100, Metabolic Activation: RAT, LIVER, S-9, AROCLOR 1254, Method: STANDARD PLATE): inactive; negative
mutagenic call (Test System: AMES SALMONELLA TYPHIMURIUM, Strain/Indicator: TA1535, Metabolic Activation: NONE, Method: STANDARD PLATE): inactive; negative
mutagenic call (Test System: AMES SALMONELLA TYPHIMURIUM, Strain/Indicator: TA1535, Metabolic Activation: RAT, LIVER, S-9, AROCLOR 1254, Method: STANDARD PLATE): inactive; negative
mutagenic call (Test System: AMES SALMONELLA TYPHIMURIUM, Strain/Indicator: TA1537, Metabolic Activation: NONE, Method: STANDARD PLATE): active; positive
mutagenic call (Test System: AMES SALMONELLA TYPHIMURIUM, Strain/Indicator: TA1537, Metabolic Activation: RAT, LIVER, S-9, AROCLOR 1254, Method: STANDARD PLATE): inactive; negative
mutagenic call (Test System: AMES SALMONELLA TYPHIMURIUM, Strain/Indicator: TA1538, Metabolic Activation: NONE, Method: STANDARD PLATE): active; positive
mutagenic call (Test System: AMES SALMONELLA TYPHIMURIUM, Strain/Indicator: TA1538, Metabolic Activation: RAT, LIVER, S-9, AROCLOR 1254, Method: STANDARD PLATE): active; positive
mutagenic call (Test System: AMES SALMONELLA TYPHIMURIUM, Strain/Indicator: TA1978, Metabolic Activation: NONE, Method: STANDARD PLATE): inactive; negative

CN(C)c1ccc(N=Nc2ccc3ccccc3c2)cc1
mutagenic call (Test System: AMES SALMONELLA TYPHIMURIUM, Strain/Indicator: TA98, Metabolic Activation: HAMSTER, LIVER, S-9, AROCLOR 1254, Method: STANDARD PLATE): active; positive
mutagenic call (Test System: AMES SALMONELLA TYPHIMURIUM, Strain/Indicator: TA98, Metabolic Activation: HAMSTER, LIVER, S-9, Method: PREINCUBATION (PRIVAL METHOD)): active; positive
mutagenic call (Test System: AMES SALMONELLA TYPHIMURIUM, Strain/Indicator: TA98, Metabolic Activation: RAT, LIVER, S-9, AROCLOR 1254, HAMSTER, LIVER, S-9, AROCLOR 1254, Method: STANDARD PLATE): active; positive
mutagenic call (Test System: AMES SALMONELLA TYPHIMURIUM, Strain/Indicator: TA100, Metabolic Activation: HAMSTER, LIVER, S-9, Method: PREINCUBATION (PRIVAL METHOD)): active; positive
mutagenic call (Test System: AMES SALMONELLA TYPHIMURIUM, Strain/Indicator: TA1538, Metabolic Activation: RAT, LIVER, S-9, AROCLOR 1254, HAMSTER, LIVER, S-9, AROCLOR 1254, Method: STANDARD PLATE): active; positive
mutagenic call (Test System: MOUSE LYMPHOMA, Strain/Indicator: L5178Y (TK+/TK-), Metabolic Activation: RAT, LIVER, S-9, AROCLOR 1254, Method: SUSPENSION/PLATE): active; positive. reevaluation of results: positive
mutagenic call (Test System: Mouse lymphoma, Strain/Indicator: L5178Y (tk+/tk-), Metabolic Activation: None, Method: Suspension/plate): inactive; negative
